Experimental data as given in patent publication US10881642B2, “Autophagy enhancer and use thereof” (Industry-Academic Cooperation Foundation, Yonsei University, priority 2016, dated 2021).

Tested on: ob/ob mice
Assay: In vivo autophagic flux and TFEB-related gene expression in liver
Experimental: FIG. 7A is the result of the experiment in which ob/ob mice were peritoneally injected with 30 mg/kg leupeptin and then after 1 hr, vehicle control or MSL compound were peritoneally administered. Three hours post administration, the liver lysates were prepared and immunoblotted. The numbers above the bands indicates fold changes normalized to beta actin bands. FIG. 7B indicates the concentration of mRNA of TFEB related genes measured by performing RT-PCT using a total RNA isolated from liver sample treated same as above except that Leupeptin was not administered. The values represent mean±S.D of fold changes compared to control mice (vehicle control) obtained from three mice.
Screening of autophagy enhancer. […] Luciferase assay. Firefly and Renilla luciferase assays were conducted using the Dual-Luciferase Reporter Assay System (Promega) according to the manufacturer's recommendation. In brief, cells were lysed in 1× lysis buffer and subjected to a single round of freezing/thawing. Firefly luciferase was determined after mixing 5 μl of lysate with 25 μl of Luciferase Assay Reagent II. Renilla luciferase was then determined after further addition of 20 ul of Stop&Glo Reagent. Cell culture and media and drugs treatment. […] Cytotoxicity was determined by the measurement of LDH release in cell culture media using the LDH kit (Roche), according to the protocol from the manufacturer. […] Imaging and image quantification. […] Formation of acidic vesicular organelles was quantitated by staining the cells with acridine orange (Invitrogen, 5 ug/ml, 10 min). […] Cells or tissues were solubilized in lysis buffer supplemented with protease and phosphatase inhibitors and protein concentration was measured by the Bradford method. Ten to 30 micrograms were loaded on 4-12% Bis-Tris gel (NUPAGE, Invitrogen) or 8-15% SDS-PAGE, transferred to PVDF membranes and analyzed by western blot using the ECL method (Pierce). […] Protein levels were quantified by using ImageJ software analysis. […]

In the case of `CSc1oc(-c2ccccc2)nc1S(=O)(=O)c1ccc(F)cc1` [MSL], the “autophagic activity in the liver measured after leupeptin administration” value (after 8 weeks of administration) is reported as “increased”, the “LC3-I to -II conversion in the liver” value (after pretreatment with leupeptin) is reported as “increased” and the “expression of TFEB-regulated genes” value (liver, compared to controls) is reported as “significantly higher”.
